Columns and labels:
[1] = test system: Nakaseomyces glabratus; test: Antimicrobial activity against Candida glabrata 20/I after 24 hrs by spectrophotometry; type: functional
[2] = test system: Aspergillus fumigatus; test: Antimicrobial activity against Aspergillus fumigatus 231 after 24 hrs by spectrophotometry; type: functional; conditions: Aspergillus fumigatus, 231, 24 h
[3] = Cytotoxicity against CHOK1 cells after 24 hrs by MTT assay; type: cell-based; conditions: Cricetulus griseus, CHO-K1, 24 h
[4] = test system: Staphylococcus epidermidis; test: Antimicrobial activity against clinical isolate Staphylococcus epidermidis H 696608 after 24 hrs; type: functional; conditions: H 696608, 24 h
[5] = test system: Staphylococcus aureus; test: Antimicrobial activity against clinical isolate methicillin-resistant Staphylococcus aureus H 599608 after 48 hrs; type: functional; conditions: H 599608, 48 h
[6] = test system: Candida tropicalis; test: Antimicrobial activity against Candida tropicalis 156 after 24 hrs by spectrophotometry; type: functional; conditions: Candida tropicalis, 156, 24 h
[7] = test system: Pichia kudriavzevii; test: Antimicrobial activity against Candida krusei E28 after 48 hrs by spectrophotometry; type: functional; conditions: E28, 48 h
[8] = test system: Lichtheimia corymbifera; test: Antimicrobial activity against Absidia corymbifera 272 after 24 hrs by spectrophotometry; type: functional; conditions: Lichtheimia corymbifera, 272, 24 h
[9] = test system: Klebsiella pneumoniae; test: Antimicrobial activity against clinical isolate ESBL-Klebsiella pneumoniae J 1436808 after 24 hrs; type: functional; conditions: J 1436808, 24 h
[10] = test system: Klebsiella pneumoniae; test: Antimicrobial activity against clinical isolate ESBL-Klebsiella pneumoniae J 1436808 after 48 hrs; type: functional; conditions: J 1436808, 48 h
[11] = test system: Lichtheimia corymbifera; test: Antimicrobial activity against Absidia corymbifera 272 after 48 hrs by spectrophotometry; type: functional; conditions: Lichtheimia corymbifera, 272, 48 h
[12] = test system: Pichia kudriavzevii; test: Antimicrobial activity against Candida krusei E28 after 24 hrs by spectrophotometry; type: functional; conditions: E28, 24 h
[13] = test system: Trichosporon asahii; test: Antimicrobial activity against Trichosporon asahii 1188 after 48 hrs by spectrophotometry; type: functional; conditions: Trichosporon asahii, 1188, 48 h
[14] = test system: Staphylococcus aureus; test: Antimicrobial activity against clinical isolate Staphylococcus aureus CCM 451608 after 24 hrs; type: functional; conditions: CCM 451608, 24 h
[15] = test system: Aspergillus fumigatus; test: Antimicrobial activity against Aspergillus fumigatus 231 after 48 hrs by spectrophotometry; type: functional; conditions: Aspergillus fumigatus, 231, 48 h
[16] = test system: Candida albicans; test: Antimicrobial activity against Candida albicans ATCC 44859 after 24 hrs by spectrophotometry; type: functional; conditions: ATCC 44859, 24 h
[17] = test system: Escherichia coli; test: Antimicrobial activity against clinical isolate Escherichia coli CCM 4517 after 48 hrs; type: functional; conditions: CCM 4517, 48 h
[18] = test system: Pseudomonas aeruginosa; test: Antimicrobial activity against clinical isolate Pseudomonas aeruginosa CCM 1961 after 120 hrs; type: functional; conditions: CCM 1961, 120 h
[19] = test system: Klebsiella pneumoniae; test: Antimicrobial activity against clinical isolate Klebsiella pneumoniae D 1175008 after 24 hrs; type: functional; conditions: D 1175008, 24 h
[20] = test system: Trichophyton mentagrophytes; test: Antimicrobial activity against Trichophyton mentagrophytes 445 after 120 hrs by spectrophotometry; type: functional; conditions: Trichophyton mentagrophytes, 445, 120 h
[21] = test system: Staphylococcus aureus; test: Antimicrobial activity against clinical isolate methicillin-resistant Staphylococcus aureus H 599608 after 24 hrs; type: functional; conditions: H 599608, 24 h
[22] = test system: Enterococcus sp.; test: Antimicrobial activity against clinical isolate Enterococcus sp. J 1436508 after 48 hrs; type: functional; conditions: J 1436508, 48 h
[23] = test system: Enterococcus sp.; test: Antimicrobial activity against clinical isolate Enterococcus sp. J 1436508 after 24 hrs; type: functional; conditions: J 1436508, 24 h
[24] = test system: Escherichia coli; test: Antimicrobial activity against clinical isolate Escherichia coli CCM 4517 after 24 hrs; type: functional; conditions: CCM 4517, 24 h
[25] = test system: Staphylococcus aureus; test: Antimicrobial activity against clinical isolate Staphylococcus aureus CCM 451608 after 48 hrs; type: functional; conditions: CCM 451608, 48 h
[26] = test system: Staphylococcus epidermidis; test: Antimicrobial activity against clinical isolate Staphylococcus epidermidis H 696608 after 48 hrs; type: functional; conditions: H 696608, 48 h
[27] = test system: Trichosporon asahii; test: Antimicrobial activity against Trichosporon asahii 1188 after 24 hrs by spectrophotometry; type: functional; conditions: Trichosporon asahii, 1188, 24 h
[28] = test system: Candida tropicalis; test: Antimicrobial activity against Candida tropicalis 156 after 48 hrs by spectrophotometry; type: functional; conditions: Candida tropicalis, 156, 48 h
[29] = test system: Nakaseomyces glabratus; test: Antimicrobial activity against Candida glabrata 20/I after 48 hrs by spectrophotometry; type: functional
[30] = test system: Klebsiella pneumoniae; test: Antimicrobial activity against clinical isolate Klebsiella pneumoniae D 1175008 after 48 hrs; type: functional; conditions: D 1175008, 48 h
[31] = test system: Trichophyton mentagrophytes; test: Antimicrobial activity against Trichophyton mentagrophytes 445 after 72 hrs by spectrophotometry; type: functional; conditions: Trichophyton mentagrophytes, 445, 72 h
[32] = test system: Pseudomonas aeruginosa; test: Antimicrobial activity against clinical isolate Pseudomonas aeruginosa CCM 1961 after 72 hrs; type: functional; conditions: CCM 1961, 72 h
[33] = test system: Candida albicans; test: Antimicrobial activity against Candida albicans ATCC 44859 after 48 hrs by spectrophotometry; type: functional; conditions: ATCC 44859, 48 h

`CCCCCCCCCC[n+]1ccc2c(O)cccc2c1` gave an MIC [1] of 16 µM, an MIC [2] greater than 500 µM and an IC50 [3] of 92 µM. For the same compound, the MIC [4] was 250 µM, the MBC [5] was 16 µM and the MIC [5] was 31 µM. The MIC [6] was 125 µM, the MFC [7] was 31 µM and the MIC [7] was 31 µM. It also gave an MIC [8] greater than 500 µM, an MIC [9] of 500 µM and an MBC [10] of 500 µM. For the same compound, the MIC [10] was 500 µM, the MFC [11] was greater than 500 µM and the MIC [11] was greater than 500 µM. For the same compound, the MIC [12] was 31 µM, the MFC [13] was 500 µM and the MIC [13] was 250 µM. The MIC [14] was 16 µM, the MFC [15] was greater than 500 µM and the MIC [15] was greater than 500 µM. The MIC [16] was 250 µM, the MBC [17] was 63 µM and the MIC [17] was 63 µM. The MBC [18] was greater than 500 µM, the MIC [18] was 250 µM and the MIC [19] was 63 µM. It also gave an MFC [20] of 125 µM, an MIC [20] of 31 µM and an MIC [21] of 31 µM. It also gave an MBC [22] of 500 µM, an MIC [22] of 500 µM and an MIC [23] of 500 µM. The MIC [24] was 63 µM, the MBC [25] was 63 µM and the MIC [25] was 16 µM. It also gave an MBC [26] of 250 µM, an MIC [26] of 250 µM and an MIC [27] of 250 µM. For the same compound, the MFC [28] was 500 µM, the MIC [28] was 125 µM and the MFC [29] was 63 µM. It also gave an MIC [29] of 16 µM, an MBC [30] of 63 µM and an MIC [30] of 63 µM. The MIC [31] was 31 µM, the MIC [32] was 250 µM and the MFC [33] was 250 µM. The MIC [33] was 250 µM.

For `CCCCCCCCCCCCCC[n+]1ccc2c(O)cccc2c1`, the MIC [1] was 3.9 µM, the MIC [2] was 31 µM and the IC50 [3] was 24 µM. It also gave an MIC [4] of 3.9 µM, an MBC [5] of 2 µM and an MIC [5] of 2 µM. It also gave an MIC [6] of 7.8 µM, an MFC [7] of 3.9 µM and an MIC [7] of 3.9 µM. For the same compound, the MIC [8] was 63 µM, the MIC [9] was greater than 500 µM and the MBC [10] was greater than 500 µM. For the same compound, the MIC [10] was 500 µM, the MFC [11] was 125 µM and the MIC [11] was 63 µM. For the same compound, the MIC [12] was 3.9 µM, the MFC [13] was 7.8 µM and the MIC [13] was 7.8 µM. It also gave an MIC [14] of 0.5 µM, an MFC [15] of 125 µM and an MIC [15] of 31 µM. It also gave an MIC [16] of 63 µM, an MBC [17] greater than 500 µM and an MIC [17] greater than 500 µM. The MBC [18] was greater than 500 µM, the MIC [18] was greater than 500 µM and the MIC [19] was greater than 500 µM. It also gave an MFC [20] of 31 µM, an MIC [20] of 16 µM and an MIC [21] of 2 µM. For the same compound, the MBC [22] was 63 µM, the MIC [22] was 63 µM and the MIC [23] was 63 µM. It also gave an MIC [24] greater than 500 µM, an MBC [25] of 1 µM and an MIC [25] of 0.5 µM. The MBC [26] was 7.8 µM, the MIC [26] was 3.9 µM and the MIC [27] was 7.8 µM. For the same compound, the MFC [28] was 7.8 µM, the MIC [28] was 7.8 µM and the MFC [29] was 7.8 µM. The MIC [29] was 3.9 µM, the MBC [30] was greater than 500 µM and the MIC [30] was greater than 500 µM. The MIC [31] was 16 µM, the MIC [32] was greater than 500 µM and the MFC [33] was 63 µM. It also gave an MIC [33] of 63 µM.

Work on `CCCCCCCCCC[n+]1ccc2ccccc2c1` yielded an MIC [1] of 7.8 µM, an MIC [2] of 500 µM and an IC50 [3] of 41 µM. For the same compound, the MIC [4] was 2 µM, the MBC [5] was 125 µM and the MIC [5] was 31 µM. For the same compound, the MIC [6] was 3.9 µM, the MFC [7] was 2 µM and the MIC [7] was 0.5 µM. The MIC [8] was greater than 500 µM, the MIC [9] was 250 µM and the MBC [10] was 500 µM. It also gave an MIC [10] of 250 µM, an MFC [11] greater than 500 µM and an MIC [11] greater than 500 µM. The MIC [12] was 0.5 µM, the MFC [13] was 250 µM and the MIC [13] was 250 µM. It also gave an MIC [14] of 16 µM, an MFC [15] greater than 500 µM and an MIC [15] of 500 µM. The MIC [16] was 16 µM, the MBC [17] was 125 µM and the MIC [17] was 63 µM. The MBC [18] was greater than 500 µM, the MIC [18] was greater than 500 µM and the MIC [19] was 63 µM. It also gave an MFC [20] of 125 µM, an MIC [20] of 63 µM and an MIC [21] of 31 µM. The MBC [22] was 125 µM, the MIC [22] was 63 µM and the MIC [23] was 63 µM. It also gave an MIC [24] of 63 µM, an MBC [25] of 31 µM and an MIC [25] of 16 µM. It also gave an MBC [26] of 16 µM, an MIC [26] of 2 µM and an MIC [27] of 250 µM. For the same compound, the MFC [28] was 7.8 µM, the MIC [28] was 3.8 µM and the MFC [29] was 31 µM. It also gave an MIC [29] of 7.8 µM, an MBC [30] of 125 µM and an MIC [30] of 63 µM. For the same compound, the MIC [31] was 63 µM, the MIC [32] was greater than 500 µM and the MFC [33] was 63 µM. The MIC [33] was 16 µM.
